ChEMBL document CHEMBL1201862, “PubChem BioAssay data set” (2004)
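Exposure lasted 48 hours, with cells grown in 96-well plates and compounds tested at five concentrations. Abbreviation: GI50, concentration required for 50% inhibition of growth.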 Activity calls are given as the source filed them. Cut-off read from the data, not from the text of the source: active = GI50 up to about 1.1 µM and inactive = higher.

How the values were obtained:
Test in all cases: growth of human tumour cells (NCI), 48 h
M14 = system: M14
EKVX = system: EKVX
A549 = system: A549
OVCAR-8 = system: OVCAR-8
SK-MEL-5 = system: SK-MEL-5
SF-268 = system: SF-268
ACHN = system: ACHN
UACC-257 = system: UACC-257
UACC-62 = system: UACC-62
SNB-19 = system: SNB-19
Hs-578T = system: Hs-578T
MOLT-4 = system: MOLT-4
DU-145 = system: DU-145
MDA-N = system: MDA-N
HT-29 = system: HT-29
SF-295 = system: SF-295
TK-10 = system: TK-10
LOX IMVI = system: LOX IMVI
HOP-62 = system: HOP-62
OVCAR-3 = system: OVCAR-3
IGROV-1 = system: IGROV-1
SK-MEL-28 = system: SK-MEL-28
HCT-116 = system: HCT-116
CAKI-1 = system: CAKI-1
HOP-92 = system: HOP-92
K562 = system: K562
CCRF-CEM = system: CCRF-CEM
NCI/ADR-RES = system: NCI/ADR-RES
HCC 2998 = system: HCC 2998
PC-3 = system: PC-3
HL-60 = system: HL-60
U-251 = system: U-251
OVCAR-4 = system: OVCAR-4
RXF 393 = system: RXF 393
SK-OV-3 = system: SK-OV-3
NCI-H23 = system: NCI-H23
NCI-H460 = system: NCI-H460
T47D = system: T47D
MCF7 = system: MCF7
BT-549 = system: BT-549
SF-539 = system: SF-539
SNB-75 = system: SNB-75
RPMI-8226 = system: RPMI-8226
NCI-H522 = system: NCI-H522
OVCAR-5 = system: OVCAR-5
SN12C = system: SN12C
HCT-15 = system: HCT-15
SW-620 = system: SW-620
MDA-MB-231 = system: MDA-MB-231
SK-MEL-2 = system: SK-MEL-2
NCI-H226 = system: NCI-H226
A498 = system: A498
786-0 = system: 786-0
COLO 205 = system: COLO 205
SR = system: SR
Malme-3M = system: Malme-3M
KM12 = system: KM12
MDA-MB-435 = system: MDA-MB-435
UO-31 = system: UO-31

For Cc1ccc(N2C(=O)CC(=O)N(NC(=O)C(C)Oc3ccccc3C)C2=S)cc1 (centres undefined), the GI50 (M14) was > 100 µM (inactive), the GI50 (EKVX) was > 100 µM (inactive) and the GI50 (A549) was > 100 µM (inactive). The GI50 (OVCAR-8) was > 100 µM (inactive), the GI50 (SK-MEL-5) was > 100 µM (inactive) and the GI50 (SF-268) was > 100 µM (inactive). The GI50 (ACHN) was > 100 µM (inactive), the GI50 (UACC-257) was > 100 µM (inactive) and the GI50 (UACC-62) was > 100 µM (inactive). The GI50 (SNB-19) was > 100 µM (inactive), the GI50 (Hs-578T) was > 100 µM (inactive) and the GI50 (MOLT-4) was 48 µM (inactive). For the same compound, the GI50 (DU-145) was > 100 µM (inactive), the GI50 (MDA-N) was 94.8 µM (inactive) and the GI50 (HT-29) was > 100 µM (inactive). For the same compound, the GI50 (SF-295) was > 100 µM (inactive), the GI50 (TK-10) was > 100 µM (inactive) and the GI50 (LOX IMVI) was 70.6 µM (inactive). The GI50 (HOP-62) was > 100 µM (inactive), the GI50 (OVCAR-3) was > 100 µM (inactive) and the GI50 (IGROV-1) was > 100 µM (inactive). The GI50 (SK-MEL-28) was > 100 µM (inactive), the GI50 (HCT-116) was > 100 µM (inactive) and the GI50 (CAKI-1) was > 100 µM (inactive). For the same compound, the GI50 (HOP-92) was > 100 µM (inactive), the GI50 (K562) was 65.9 µM (inactive) and the GI50 (CCRF-CEM) was 1.6 µM (inactive). The GI50 (NCI/ADR-RES) was > 100 µM (inactive), the GI50 (HCC 2998) was > 100 µM (inactive) and the GI50 (PC-3) was > 100 µM (inactive). The GI50 (HL-60) was > 100 µM (inactive), the GI50 (U-251) was > 100 µM (inactive) and the GI50 (OVCAR-4) was > 100 µM (inactive). For the same compound, the GI50 (RXF 393) was > 100 µM (inactive), the GI50 (SK-OV-3) was > 100 µM (inactive) and the GI50 (NCI-H23) was > 100 µM (inactive). The GI50 (NCI-H460) was > 100 µM (inactive), the GI50 (T47D) was > 100 µM (inactive) and the GI50 (MCF7) was > 100 µM (inactive). The GI50 (BT-549) was > 100 µM (inactive), the GI50 (SF-539) was > 100 µM (inactive) and the GI50 (SNB-75) was > 100 µM (inactive). The GI50 (RPMI-8226) was > 100 µM (inactive), the GI50 (NCI-H522) was > 100 µM (inactive) and the GI50 (OVCAR-5) was > 100 µM (inactive). For the same compound, the GI50 (SN12C) was > 100 µM (inactive), the GI50 (HCT-15) was > 100 µM and the GI50 (SW-620) was > 100 µM (inactive). The GI50 (MDA-MB-231) was > 100 µM (inactive), the GI50 (SK-MEL-2) was > 100 µM (inactive) and the GI50 (NCI-H226) was > 100 µM (inactive). The GI50 (A498) was > 100 µM (inactive), the GI50 (786-0) was > 100 µM (inactive) and the GI50 (COLO 205) was > 100 µM (inactive). The GI50 (SR) was 57.1 µM (inactive), the GI50 (Malme-3M) was > 100 µM (inactive) and the GI50 (KM12) was > 100 µM (inactive). The GI50 (MDA-MB-435) was > 100 µM (inactive) and the GI50 (UO-31) was > 100 µM (inactive).
